Reference: patent publication US7517884B2 (Kalypsys Inc., priority 1998, dated 2009)
pEC50: −log10 of the molar value.

Key:
Type in all cases: cell-based, murine and human
Conditions in all cases: GAL4-PPAR LBD chimera
[1] = target: T1, PPAR-gamma (UniProt P37231); assay: PPAR-gamma transactivation assay (GAL4 chimera, luciferase reporter) in CV-1 cells
T1 sequence (P37231 1-505): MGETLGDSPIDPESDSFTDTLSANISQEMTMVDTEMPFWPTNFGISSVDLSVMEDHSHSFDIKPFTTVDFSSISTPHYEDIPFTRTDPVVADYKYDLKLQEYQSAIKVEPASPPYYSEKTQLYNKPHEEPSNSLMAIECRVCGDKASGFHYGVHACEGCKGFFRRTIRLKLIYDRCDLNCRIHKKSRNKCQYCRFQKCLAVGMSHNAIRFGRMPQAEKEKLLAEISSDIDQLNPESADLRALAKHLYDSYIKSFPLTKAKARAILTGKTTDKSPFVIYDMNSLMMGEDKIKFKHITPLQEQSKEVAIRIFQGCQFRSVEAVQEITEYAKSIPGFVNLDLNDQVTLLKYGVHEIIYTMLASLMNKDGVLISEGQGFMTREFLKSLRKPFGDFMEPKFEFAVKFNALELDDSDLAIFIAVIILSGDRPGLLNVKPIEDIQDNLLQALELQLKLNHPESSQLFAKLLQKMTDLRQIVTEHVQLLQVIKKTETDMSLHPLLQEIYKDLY
Outline: (§1)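 CV-1 cells transiently transfected with murine or human PPAR-alpha, -gamma or -delta ligand-binding domain fused to GAL4 DNA-binding domain plus a GAL4-site luciferase reporter. After replating in phenol-red-free DME with 5% delipidated calf serum, cells were exposed to compound 20-24 h; luciferase read-out gave EC50.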

[2] = target: T2, PPAR-alpha (UniProt Q07869); assay: PPAR-alpha transactivation assay (GAL4 chimera, luciferase reporter) in CV-1 cells
T2 sequence (Q07869 1-468): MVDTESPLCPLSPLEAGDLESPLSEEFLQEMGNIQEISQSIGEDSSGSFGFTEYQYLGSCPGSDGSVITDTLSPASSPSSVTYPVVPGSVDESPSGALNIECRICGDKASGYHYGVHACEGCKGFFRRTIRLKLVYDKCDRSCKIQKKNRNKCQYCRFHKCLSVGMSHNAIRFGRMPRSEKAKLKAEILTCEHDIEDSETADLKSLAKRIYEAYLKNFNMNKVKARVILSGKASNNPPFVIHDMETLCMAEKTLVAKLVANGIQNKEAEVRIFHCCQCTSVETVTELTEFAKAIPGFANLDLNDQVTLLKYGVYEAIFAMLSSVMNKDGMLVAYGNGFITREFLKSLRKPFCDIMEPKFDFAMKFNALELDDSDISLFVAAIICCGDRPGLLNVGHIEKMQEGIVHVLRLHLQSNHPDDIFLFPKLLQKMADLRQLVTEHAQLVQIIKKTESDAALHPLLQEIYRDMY
Outline: as §1

[3] = target: T3, PPAR-delta (UniProt Q03181); assay: PPAR-delta transactivation assay (GAL4 chimera, luciferase reporter) in CV-1 cells
T3 sequence (Q03181 1-441): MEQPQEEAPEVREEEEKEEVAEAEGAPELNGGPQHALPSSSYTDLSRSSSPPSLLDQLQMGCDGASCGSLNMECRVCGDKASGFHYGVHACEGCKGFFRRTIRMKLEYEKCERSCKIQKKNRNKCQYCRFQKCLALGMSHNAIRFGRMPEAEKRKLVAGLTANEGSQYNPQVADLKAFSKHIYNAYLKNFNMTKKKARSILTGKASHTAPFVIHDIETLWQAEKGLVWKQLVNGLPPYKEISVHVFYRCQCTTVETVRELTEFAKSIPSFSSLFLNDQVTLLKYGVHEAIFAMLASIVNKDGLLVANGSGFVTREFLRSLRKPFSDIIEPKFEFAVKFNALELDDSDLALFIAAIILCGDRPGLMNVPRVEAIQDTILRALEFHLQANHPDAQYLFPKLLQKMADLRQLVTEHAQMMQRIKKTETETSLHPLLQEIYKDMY
Outline: as §1

pEC50 [1]	pEC50 [2]	pEC50 [3]	SMILES
4.00 to 5.30	4.00 to 5.30	> 5.30	C[C@@H]1CN(c2ccc(C(F)(F)F)c(Cl)c2)C[C@H](C)N1S(=O)(=O)c1ccc2c(c1)C(C(=O)O)CC2 (stereo partly drawn) [Example 50, 6-[4-(3-Chloro-4-trifluoromethyl-phenyl)-cis-2,6-dimethyl-piperazine-1-sulfonyl]-indan-1-carboxylic acid]
> 5.30	> 5.30	> 5.30	COC(=O)[C@H]1CN(S(=O)(=O)c2ccc3c(c2)C(C(=O)O)CC3)CCN1c1ccc(C(F)(F)F)cn1 (stereo partly drawn) [Example 39, (R)-4-(3-Carboxy-indane-5-sulfonyl)-1-(5-trifluoromethyl-pyridin-2-yl)-piperazine-2-carboxylic acid methyl ester]
< 4.00	< 4.00	> 5.30	C[C@@H]1CN(c2cc(F)c(Cl)c(F)c2)C[C@H](C)N1S(=O)(=O)c1cccc2c1CC(C(=O)O)C2 (stereo partly drawn) [Example 124, 4-(4-(4-Chloro-3,5-difluorophenyl)-cis-2,6-dimethylpiperazin-1-ylsulfonyl)-2,3-dihydro-1H-indene-2-carboxylic acid]
4.00 to 5.30	4.00 to 5.30	> 5.30	O=C(O)C1Cc2cccc(S(=O)(=O)N3CCN(Cc4ccc(C(F)(F)F)cc4)CC3)c2C1 (stereo not drawn) [Example 97, 4-[4-(4-trifluoromethyl-benzyl)-piperazine-1-sulfonyl]-indan-2-carboxylic acid]
4.00 to 5.30	4.00 to 5.30	> 5.30	C[C@H]1CN(c2ccc(C(F)(F)F)cn2)CCN1S(=O)(=O)c1cccc2c1CC(C(=O)O)C2 (stereo partly drawn) [Example 94, 4-[2-(S)-Methyl-4-(5-trifluoromethyl-pyridin-2-yl)-piperazine-1-sulfonyl]-indan-2-carboxylic acid]
> 5.30	> 5.30	> 5.30	CCC1CN(c2ccc(C(F)(F)F)c(Cl)c2)CCN1S(=O)(=O)c1ccc2c(c1)C(C(=O)O)CC2 (stereo not drawn) [Example 56, 6-[4-(3-chloro-4-trifluoromethyl-phenyl)-2-ethyl-piperazine-1-sulfonyl]-indan-1carboxylic acid]
> 5.30	> 5.30	> 5.30	O=C(O)C1CCc2ccc(S(=O)(=O)N3CCN(c4ccc(Cl)c(Cl)c4)CC3)cc21 (stereo not drawn) [Example 46, 6-[4-(3,4-dichloro-phenyl)-piperazine-1-sulfonyl]-indan-1-carboxylic acid]
4.00 to 5.30	4.00 to 5.30	4.00 to 5.30	O=C(O)C1Cc2cccc(S(=O)(=O)N3CCN(c4cccc(OCC(F)(F)F)c4)CC3)c2C1 (stereo not drawn) [Example 112, 4-{4-[3-(2,2,2-trifluoro-ethoxy)-phenyl]-piperazine-1-sulfonyl}-indan-2-carboxylic acid]
> 5.30	< 4.00	> 5.30	O=C(O)C1Cc2cccc(S(=O)(=O)N3CCN(c4ccc(C(F)(F)F)cc4)CC3)c2C1 (stereo not drawn) [Example 6, 4-[4-(4-trifluoromethyl-phenyl)-piperazine-1-sulfonyl]-indan-2-carboxylic acid]
4.00 to 5.30	4.00 to 5.30	> 5.30	C[C@@H]1CN(Cc2ccc(OC(F)(F)F)cc2)C[C@H](C)N1S(=O)(=O)c1cccc2c1CC(C(=O)O)C2 (stereo partly drawn) [Example 95, 4-[cis-2,6-dimethyl-4-(4-trifluoromethoxyl-benzyl)-piperazine-1-sulfonyl]-indan-2-carboxylic acid]
> 5.30	> 5.30	> 5.30	C[C@H]1CN(c2ccc(C(F)(F)F)cn2)C[C@H](C)N1S(=O)(=O)c1ccc2c(c1)C(C(=O)O)CC2 (stereo partly drawn) [Example 68, 6-[trans-2,6-(S,S)-dimethyl-4-(5-trifluoromethyl-pyrdin-2-yl)-piperazine-1-sulfonyl]-indan-1-carboxylic acid]
4.00 to 5.30	< 4.00	> 5.30	C[C@@H]1CN(Cc2ccc(OC(F)(F)F)cc2)C[C@H](C)N1S(=O)(=O)c1ccc2scc(CC(=O)O)c2c1 [Example 110, {5-[cis-2,6-dimethyl-4-(4-trifluoromethoxy-benzyl)-piperazine-1-sulfonyl]-benzo[b]thiophen-3-yl}-acetic acid]
4.00 to 5.30	4.00 to 5.30	> 5.30	CC1CN(c2ccc(C(F)(F)F)cn2)CCN1S(=O)(=O)c1ccc2scc(CC(=O)O)c2c1 (stereo not drawn) [Example 42, {5-[2-methyl-4-(5-trifluoromethyl-pyridin-2-yl)-piperazine-1-sulfonyl]-benzo[b]thiophen-3-yl}-acetic acid]
> 5.30	4.00 to 5.30	> 5.30	C[C@@H]1[C@H](C)N(c2ccc(C(F)(F)F)cn2)CCN1S(=O)(=O)c1ccc2scc(CC(=O)O)c2c1 (stereo in doubt) [Example 87, {5-[2,3-Dimethyl-4-(5-trifluoromethyl-pyridin-2-yl)-piperazine-1-sulfonyl]-benzo[b]thiophen-3-yl}-acetic acid]
4.00 to 5.30	< 4.00	> 5.30	C[C@@H]1CN(c2ccc(OC(F)(F)F)cc2)C[C@H](C)N1S(=O)(=O)c1cccc2c1CC(c1nnn[nH]1)C2 (stereo partly drawn) [Example 109, cis-2,6-dimethyl-1-[2-(1H-tetrazol-5-yl)-indane-4-sulfonyl]-4-(4-trifluoromethoxy-phenyl)-piperazine]
> 5.30	4.00 to 5.30	> 5.30	O=C(O)C1Cc2cccc(S(=O)(=O)N3CCN(Cc4ccc(OC(F)(F)F)cc4)CC3)c2C1 (stereo not drawn) [Example 98, 4-[4-(4-trifluoromethoxy-benzyl)-piperazine-1-sulfonyl]-indan-2-carboxylic acid]
4.00 to 5.30	< 4.00	> 5.30	C[C@@H]1CN(Cc2ccc(C(F)(F)F)cc2)C[C@H](C)N1S(=O)(=O)c1cccc2c1CC(C(=O)O)C2 (stereo partly drawn) [Example 96, 4-[cis-2,6-dimethyl-4-(4-trifluoromethyl-benzyl)-piperazine-1-sulfonyl]-indan-2-carboxylic acid]
4.00 to 5.30	> 5.30	> 5.30	CCC1CN(c2ccc(C(F)(F)F)cc2F)CCN1S(=O)(=O)c1ccc2c(c1)C(C(=O)O)CC2 (stereo not drawn) [Example 60, 6-[2-Ethyl-4-(2-fluoro-4-trifluoromethyl-phenyl)-piperazine-1-sulfonyl]-indan-1-carboxylic acid]
< 4.00	< 4.00	> 5.30	CCc1ccc(N2C[C@@H](C)N(S(=O)(=O)c3cccc4c3CC(C(=O)O)C4)[C@@H](C)C2)cc1 (stereo partly drawn) [Example 136, 4-|4-(4-Ethylphenyl)-cis-2,6-dimethylpiperazin-1-ylsulfonyl|-2,3-dihydro-1H-indene-2-carboxylic acid]
< 4.00	4.00 to 5.30	> 5.30	C[C@@H]1CN(c2cc(F)c(C(F)(F)F)c(F)c2)C[C@H](C)N1S(=O)(=O)c1cccc2c1CC(C(=O)O)C2 (stereo partly drawn) [Example 121, 4-(4-(3,5-Difluoro-4-(trifluoromethyl)phenyl)-cis-2,6-dimethylsulfonyl)-2,3-dihydro-1H-indene-2-carboxylic acid]
4.00 to 5.30	4.00 to 5.30	> 5.30	C[C@@H]1CN(c2ccc(OC(F)(F)F)cc2)C[C@H](C)N1S(=O)(=O)c1ccc2scc(CC(=O)O)c2c1 [Example 100, {5-[cis-2,6-dimethyl-4-(4-trifluoromethoxy-phenyl)-piperazine-1-sulfonyl]-benzo[b]thiophen-3-yl}-acetic acid]
> 5.30	> 5.30	> 5.30	O=C(O)C1CCc2ccc(S(=O)(=O)N3CCN(c4ccc(C(F)(F)F)c(Cl)c4)CC3)cc21 (stereo not drawn) [Example 74, 6-[4-(3-chloro-4-trifluoromethyl-phenyl)-piperazine-1-sulfonyl]-indan-1-carboxylic acid]
